These results are taken from US20240360060A1, “6-HYDROXY-CANNABIDIOL-C4” (GW RESEARCH LIMITED, priority 2021, published 2024).

Data set [1] has as its system MES model of generalised seizure. The conditions noted are these: earlier filing WO 2020/104796; cited from earlier work.
For data set [2], the system named is mouse model of generalised seizure (tonic hind limb extensor convulsions). As to the kind of experiment: mini-MEST (maximal electroshock seizure threshold) test in the mouse. The conditions noted are these: 30 min post dose. The method, then: The maximal electroshock seizure threshold (MEST) test is widely utilized preclinically to evaluate pro- or anti-convulsant properties of test compounds (Loscher et al., 1991).
In the MEST test the ability of a drug to alter the seizure threshold current required to induce hind limb tonic extensor convulsions is measured according to an “up and down” method of shock titration (Kimball et al., 1957). An increase in seizure threshold is indicative of anti-convulsant effect.
The ability of a test compound to alter the stimulus intensity, expressed as current (mA), required to induce the presence of tonic hind limb extensor convulsions, is assessed in the MEST.
Naïve mice were acclimatized to the procedure room in their home cages for up to 7 days, with food and water available ad libitum.
All animals were weighed at the beginning of the study and randomly assigned to treatment groups based on a mean distribution of body weight across groups.
The first animal within a treatment group was given a shock at the expected or estimated CC50 current. For subsequent animals, the current was lowered or raised depending on the convulsions outcome from the preceding animal in log scale intervals.
Data generated from each treatment group were used to calculate the CC50±SEM values for the treatment group.
The test compound, described herein as Compound I, are as shown as Formula I. Test compound was administered at 150 mg/kg (i.p.) in a 1:2:17 ethanol:solutol:0.9% saline formulation.
The data for each treatment group were recorded as the number of +'s and 0's at each current level employed and this information is then used to calculate the CC50 value (current required for 50% of the animals to show seizure behaviour)±standard error.
Test compound effects were also calculated as percentage change in CC50 from the vehicle control group.
Significant difference between drug-treated animals and controls were assessed according to Litchfield and Wilcoxon (1949).
On the technique in general: The maximal electroshock test induces tonic seizures with an electrical stimulus.

Data set [3] can be described thus: Bioanalysis of Compound I in plasma and brain (UPLC-MS/MS). The conditions noted are these: 150 mg/kg i.p., 30 min post-dose, mouse; for concentration at 30 min: ip, 150 mg/kg. The class given is in vivo, mice. The method, then: Each animal was humanely killed immediately after production of a convulsion by destruction of the brain from striking the cranium, followed by the confirmation of permanent cessation of the circulation from decapitation under The Humane Killing of Animals under Schedule 1 to the Animals (Scientific Procedures) Act 1986. Terminal blood and brain collection were performed following decapitation.
Blood was collected in Lithium-heparin tubes and centrifuged at 4° C. for 10 minutes at 1500×g. The resulting plasma was removed (>100 μL) and split into 2 aliquots of 0.5 mL Eppendorf tubes containing 10 μL of ascorbic acid (100 mg/mL) for stabilisation. Brains were removed, washed in saline and halved. Each half was placed into separate 2 mL screw cap cryovials, weighed and frozen on cardice.
Bioanalysis experiments were carried out to determine the quantitative measurement of Compound I in plasma and brain.
Six mice were dosed with Compound I at 150 mg/kg via intraperitoneal (i.p) injection. Sample analysis was performed 30 min post-dose using a sample volume of 40 μL. Following addition of internal standard (in acetonitrile) and Isopropanol samples were protein precipitated by addition of acetonitrile. Samples were centrifuged and supernatant transferred to a clean 96-well plate (with addition of Tween to minimise non-specific binding to plate materials), evaporated to dryness then reconstituted in suitable solvent. The extracts quantified by ultraperformance liquid chromatography-tandem mass spectromtry (UPLC-MS/MS).

Values joined by “and” are separate entries in the source; they are usually repeats but may differ in a detail not shown here. Equal values may be shown once. Read-outs that look alike come from different tables or passages of the source. Some results are limits rather than exact numbers.

Consider `C=C(C)[C@@H]1CCC(C)=C[C@H]1c1c(O)cc(CCCC)cc1O` [CBD-C4, Cannabidiol-C4], for which, in data set [1], the anti-convulsant activity entry is “Therapeutic efficacy was shown”.
In the case of `CN1C(=O)CN=C(c2ccccc2)c2cc(Cl)ccc21` [Diazepam, diazepam, reference compound], the “% change from vehicle (CC50)” value in data set [2] (2.5 mg/kg i.p.) is 291%.
Regarding `C=C(C)[C@@H]1C[C@H](O)C(C)=C[C@H]1c1c(O)cc(CCCC)cc1O` [Compound I, (1′R,2′R,4′S)-4-butyl-5′-methyl-2′-(prop-1-en-2-yl)-1′,2′,3′,4′-tetrahydro-[1,1′-biphenyl]-2,4′,6-triol], in data set [3] (brain), the “Conc. in brain (individual animals; head: Plasma Conc.)” value was 17.696 µM and 200.472 µM and 183.889 µM and 173.842 µM and 212.516 µM and 228.344 µM. In addition, the concentration at 30 min stood at 169 µM in data set [3] (brain, brain, n=6, read-out: Mean conc. in brain (head: Mean Plasma Conc.)) and 255 µM in data set [3] (plasma, plasma, n=6, read-out: Mean Plasma Conc.). Besides, the “Plasma Conc. (individual animals)” value in data set [3] (plasma) was 379.642 µM and 242.369 µM and 47.322 µM and 295.516 µM and 268.44 µM and 299.404 µM. In addition, the “tonic hind limb convulsions in treatment group” value in data set [2] (150 mg/kg i.p., 6 animals) was “did not have any convulsions”. In addition, the “CC50 +/- SEM (current required for 50% of the animals to show seizure behaviour)” value in data set [2] (150 mg/kg i.p., N=6) is given as over 131 mA.
